Experimental data: US9526729B2, “Medicament for treating peripheral neuropathies” (priority 2013, dated 2016)

How the values were obtained:
viral polymerase = viral polymerase (Human herpesvirus 1, UniProt P04293); settings: cited from earlier work
[1] = tested on: Herpes simplex virus (HSV); test: Clinical cases of QTT-positive HSV-associated dermatitis treated with antiviral agent; format: in vivo, human
Excerpt: Step 100: Checking a potential disease (D) relates to a dermatosis or a non-skin disease. For example, some questions are given for the patient and the skin of the patient is checked by an experienced inspector or a medical staff to determine if a potential disease (D) had by the patent relates to a dermatosis or a non-skin disease. If the potential disease (D) relates to a dermatosis, the inspector or the medical staff will take some tissue samples from an affected part of a patient's skin, as illustrated in step 101, and the test in step 102 for testing the tissue samples from the patient's skin will continue. If the disease (D) relates to a non-skin disease, the inspector or the medical staff takes a tissue sample from a specific part, such as peripheral blood, skin, bone marrow, mucosa, saliva, cerebrospinal fluid, amniotic fluid, brain tissue, tears or skin secretions, of the patient, as illustrated in step 103, based on the method for testing the tissue sample in step 104, and then the test in step 104 for testing the tissue samples from the specific part of the patient will continue.
(§1) Step 102: Performing a Quick Tzanck Test (QTT) process. The QTT process can be applied to the tissue samples from the patient's skin so as to reveal some histopathological changes from the QTT sample, i.e. the tissue samples from the patient's skin, by using a microscope. The inspector or the medical staff can observe the histopathological changes to diagnose HSV infection.
Step 106: Treating an anti-HSV treatment of, for example, prescribing an anti-HSV medicine or an anti-HSV cream for the patient. The patient may take the anti-HSV medicine to cure the HSV infection. Alternatively, the patient may apply the anti-HSV cream onto the affected part of the patient's skin.
(§2) 1. Adult: Valacyclovir (500 mg) • a. 2 tablets daily (i.e. 1 tablet after breakfast and dinner) for 5-7 days. • b. 3 tablets daily (i.e. every 8 hours) for severe cases in the beginning only.

[2] = tested on: Herpes simplex virus (HSV); test: Clinical cases of impetigo induced by HSV infection; format: in vivo, human; settings: for clinical outcome, skin lesions: Acyclovir G. 10 mg/kg 4 times a day for 7 days + anti-allergic agents
Protocol: The QTT process can be applied to the tissue samples from the patient's skin so as to reveal some histopathological changes from the QTT sample, i.e. the tissue samples from the patient's skin, by using a microscope. The inspector or the medical staff can observe the histopathological changes to diagnose HSV infection.
as §2

[3] = tested on: Herpes simplex virus (HSV); test: Clinical cases of chilblain induced by HSV infection; format: in vivo, human; settings: for clinical outcome, red swollen fingers with pain: 2nd case of chilblain
Excerpt: as §1
(§3) Step 104: Performing an antibody testing or a PCR techniques on the tissue sample from the specific part of the patient. The antibody testing, such as the HSV IgG testing, the cytomegalovirus immunoglobulin G (CMV IgG) testing or the non-specific immunoglobulin E (IgE) testing is adapted to be performed on a peripheral blood, acting as the tissue sample, of the patient. The PCR testing is adapted to be performed on peripheral blood, skin, bone marrow, mucosa, saliva, cerebrospinal fluid, amniotic fluid, brain tissue, tears or skin secretions, acting as the tissue sample, of the patient. The antibody testing or PCR techniques may be referred to the description in the section of “Diagnosis of HSV Infection”. The normal titer for CMV IgG/HSV IgG is less than 2 and the normal titer for non-specific IgE is less than 170 IU/ml. When the tissue sample from peripheral blood of the patient has a titer for CMV IgG/HSV IgG greater than 2, the process of “anti-HSV treatments” in step 106 is then carried out. Otherwise, the step 108 of “other treatments” is carried out. Alternatively, when the result of detecting the tissue sample via the PCR techniques is positive, the process of “anti-HSV treatments” in step 106 is then carried out; when the result of detecting the tissue sample via the PCR techniques is negative, the step 108 of “other treatments” is carried out.
as §2

[4] = tested on: Herpes simplex virus (HSV); test: Clinical cases of diabetic skin complications (psoriasiform plaques induced by HSV infection); format: in vivo, human; settings: Acyclovir (400 mg) 3 tablets daily for 10 days then 2 tablets daily for 10 days + NBUVB + Gr. I and III topical CS; 7 days afterwards
Excerpt: as §3
1. […]

[5] = tested on: Herpes simplex virus (HSV); test: Clinical cases of alopecia due to HSV infection; format: in vivo, human
viral thymidine kinase = viral thymidine kinase (Human herpesvirus 1, UniProt P0DTH5); settings: conversion into acyclo-guanosine monophosphate; cited from earlier work
Sequence of viral thymidine kinase (P0DTH5 whole entry): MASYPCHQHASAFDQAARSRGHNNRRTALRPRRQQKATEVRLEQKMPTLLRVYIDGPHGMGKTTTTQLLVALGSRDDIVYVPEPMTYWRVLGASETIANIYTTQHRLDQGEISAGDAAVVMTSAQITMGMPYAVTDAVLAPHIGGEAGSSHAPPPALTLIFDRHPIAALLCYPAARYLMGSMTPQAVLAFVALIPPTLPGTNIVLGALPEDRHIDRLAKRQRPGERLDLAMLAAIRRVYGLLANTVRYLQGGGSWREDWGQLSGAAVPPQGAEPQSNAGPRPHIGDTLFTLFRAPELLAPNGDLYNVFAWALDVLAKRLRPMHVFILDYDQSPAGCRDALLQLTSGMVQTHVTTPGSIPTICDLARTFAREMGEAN

[6] = tested on: recurrent erythema multiforme; settings: continuous acyclovir therapy; double-blind trial in 1995 (Tatnall); cited from earlier work
[7] = tested on: Herpes simplex virus (HSV); test: Clinical cases of acne induced by HSV infection; format: in vivo, human; settings: for clinical outcome, symptoms: 7 days later
Protocol: as §1, §2
Consequently, the treatment in the present invention of acne may comprise a cream or an ointment mixed by an Anti-HSV agent to put on the affected part of the patient, wherein the Anti-HSV agent comprises Valacyclovir or Acyclovir. For example, the ADO ointment used in this invention contains acyclovir, lidocaine and diclofenac.

[8] = tested on: Herpes simplex virus (HSV); test: Clinical cases of pyoderma gangrenosum induced by HSV infection; format: in vivo, human
[9] = CASE 7, with anti-allergic agent and antibiotic ointment, 9 days later

Sequence of viral polymerase (P04293 whole entry): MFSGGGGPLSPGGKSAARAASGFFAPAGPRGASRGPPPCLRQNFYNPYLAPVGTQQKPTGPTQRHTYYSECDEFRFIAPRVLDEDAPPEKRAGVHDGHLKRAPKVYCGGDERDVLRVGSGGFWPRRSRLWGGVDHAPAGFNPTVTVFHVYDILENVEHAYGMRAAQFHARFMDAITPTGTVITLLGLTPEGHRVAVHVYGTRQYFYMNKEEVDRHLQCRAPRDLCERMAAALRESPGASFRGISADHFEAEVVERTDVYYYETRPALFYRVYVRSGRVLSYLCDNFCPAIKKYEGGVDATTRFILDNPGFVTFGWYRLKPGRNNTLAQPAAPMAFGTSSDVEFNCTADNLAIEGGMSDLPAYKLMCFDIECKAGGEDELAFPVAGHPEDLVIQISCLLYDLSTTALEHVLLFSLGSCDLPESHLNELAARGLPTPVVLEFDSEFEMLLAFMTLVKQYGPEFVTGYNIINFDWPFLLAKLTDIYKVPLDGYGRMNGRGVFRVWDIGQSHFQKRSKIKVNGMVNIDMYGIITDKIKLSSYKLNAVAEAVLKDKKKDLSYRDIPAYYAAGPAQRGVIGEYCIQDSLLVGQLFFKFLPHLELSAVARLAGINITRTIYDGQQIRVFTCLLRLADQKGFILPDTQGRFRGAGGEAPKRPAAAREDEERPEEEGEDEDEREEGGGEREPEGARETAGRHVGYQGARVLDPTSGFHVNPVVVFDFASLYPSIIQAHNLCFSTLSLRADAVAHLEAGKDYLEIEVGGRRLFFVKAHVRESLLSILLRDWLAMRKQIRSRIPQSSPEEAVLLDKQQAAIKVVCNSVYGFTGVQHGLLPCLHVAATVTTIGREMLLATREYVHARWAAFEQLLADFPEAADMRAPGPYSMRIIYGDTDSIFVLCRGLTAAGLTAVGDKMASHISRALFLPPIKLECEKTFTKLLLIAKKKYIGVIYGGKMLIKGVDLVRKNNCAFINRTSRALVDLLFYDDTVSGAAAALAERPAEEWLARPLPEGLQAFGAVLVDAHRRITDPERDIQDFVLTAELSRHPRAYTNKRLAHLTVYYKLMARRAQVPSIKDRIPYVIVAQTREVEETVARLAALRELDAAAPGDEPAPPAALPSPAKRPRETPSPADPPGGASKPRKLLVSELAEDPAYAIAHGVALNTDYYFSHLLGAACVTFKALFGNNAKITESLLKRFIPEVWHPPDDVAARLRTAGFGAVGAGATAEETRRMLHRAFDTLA

In the case of Nc1nc2c(ncn2COCCOP(=O)(O)OP(=O)(O)OP(=O)(O)O)c(=O)[nH]1 [Acyclo-GTP, acyclo-guanosine triphosphate], the “greater affinity for viral than cellular polymerase” value (viral polymerase) is given as “approximately 100 times”.

For Nc1nc(O)c2ncn(COCCO)c2n1 [Acyclovir, 2-Amino-1,9-dihydro-9-((2-hydroxyethoxy)methyl)-6H-purin-6-one], the “clinical outcome, vesiculopapules and plaques” value ([1]; CASE 6, QTT positive, 2 days later) was “nearly no vesiculopapules and plaques over their trunk and upper extremity”, the “clinical outcome, earlier similar eruptions” value ([1]; Case 8, 5-7 days of acyclovir granules, 7 and 9 months ago) was “Completely disappearance of similar eruptions” and the “clinical outcome, skin lesions” value ([2]; 1st case of impetigo, antibiotics, 9 days later) was “only some erythema on their mandible and some small red erosions over right cheek”. The “clinical outcome, lesion” value ([2]; 2nd case of impetigo, Acyclovir G. 10 mg/kg 4 times a day for 7 days + antibiotics ointment, 3 days later) was “The lesion dried, desquamated and became flat”, the recurrence ([2]; 4th case of impetigo, about one year) was “no recurrence till now” and the “clinical outcome, skin lesions” value ([2]; 5th case of impetigo, Gr. IV topical corticosteroids, antibiotic ointment, 5 days later) was “some small erosions around their month and some vesiculopapules over the erythematosus eyelids”. The recurrence ([2]; 5th case of impetigo, about 14 months) was “no recurrence till now”, the “clinical outcome, swelling, pain, erosion” value ([3]; 1st case of chilblain, Acyclovir 200 mg 3 tablets daily for 7 days, 7 days later) was “The swelling and pain decreased a lot. The erosion improved” and the “clinical outcome, psoriasiform plaques” value [4] was “Some lesions disappeared and the scaling of the psoriasiform plaques decreased a lot”. The “clinical outcome, vesicopapules and pustules on back” value ([5]; 1st case of alopecia and acne-like eruption, after the treatment) was “only a few vesicopapules and pustules on their back”, the hair regrowth ([5]; 1st case of alopecia, Acyclovir (400 mg) 3 tablets daily for 10 days and 2 tablets daily for 14 days + anti-allergic agent + Gr. III topical CS, 23 days later) was “Small white hairs appeared especially over central portion” and the “effectiveness of viral thymidine kinase in phosphorylation versus cellular thymidine kinase” value (viral thymidine kinase) was 3000 times. For the same molecule, the “suppression of recurrent erythema multiforme” value [6] was “completely suppressed”.

With CC(C)C(N)C(=O)OCCOCn1cnc2c(=O)nc(N)[nH]c21 (centres unmarked) [Valacyclovir, 2-[(2-amino-6-oxo-6,9-dihydro-3H-purin-9-yl)methoxy]ethyl-2-amino-3-methylbutanoate] the “clinical outcome, vesicles and swelling of forearm” value ([1]; CASE 5, 2 days after Valacyclovir granule) was “Most of the vesicles became crusts and the swelling of their forearm improved a lot”, the “clinical outcome, anterior chest” value [1, 9] was “only few vesiculopapules over their anterior chest” and the “clinical outcome, lower abdomen” value [1, 9] was “nearly no punched out erosions over their lower abdomen”. The recurrence ([1]; Case 9, follow-up after treatment) was “no recurrence for 2 years”, the “clinical outcome, vesicles” value ([1]; Case 9, with anti-allergic agent, 3 days after treatment) was “the roofs of the vesicles detached and became crusted erosions” and the “clinical outcome, skin lesion” value ([1]; Case 9, with anti-allergic agent, 7 days later) was “healed completely”. The “clinical outcome, pustules and inflammation” value ([7]; 1st case of acne, Valacyclovir 2 tablets daily for 5 days + Nadifloxacin cream, 5 days later) was “The number of the pustules and the extent of inflammation decreased”, the “clinical outcome, pustules” value ([7]; 2nd case of acne, Valacyclovir 2 tablets daily for 5 days + ADO ointment, 8 days later) was “Nearly no pustules were seen” and the “clinical outcome, inflammation and comedoes” value ([7]; 3rd case of acne, Valacyclovir 2 tablets daily for 5 days per month + ADO ointment, 23 days later) was “The severe inflammation on the nose and over the left cheek decreased a lot”. The “clinical outcome, pustules” value ([7]; 4th case of acne, Valacyclovir 2 tablets daily for 5 days + anti-allergic agent + Gr. IV topical CS, 2 days later) was “Not only the number but also the size of the pustules decreased a lot”, the recurrence ([7]; 4th case of acne, after completed medication, about one year) was “no recurrence till now” and the “clinical outcome, symptoms” value ([7]; 5th case of acne, Valacyclovir 2 tablets daily for 5 days + antibiotics 2 days + Nadifloxacin cream) was “Symptoms have significantly improved”. The “clinical outcome, symptoms” value ([7]; 6th case of acne, Valacyclovir 2 tablets daily for 5 days + Nadifloxacin cream + Gr. IV topical CS) was “Symptoms have significantly improved”, the “clinical outcome, vesicles” value ([2]; 3rd case of impetigo, Valacyclovir 2 tablets daily + anti-allergic agent, 3 days after the treatment) was “the vesicles found over their left neck 6 days ago collapsed” and the “clinical outcome, symptoms” value ([2]; 3rd case of impetigo, Valacyclovir 2 tablets daily for 7 days + anti-allergic agent + antibiotics 2 days, 7 days later) was “Symptoms have significantly improved”. For the same molecule, the “clinical outcome, erosions and oozing” value ([8]; 1st case of pyoderma gangrenosum, Valacyclovir 3 tablets daily for 10 days + anti-allergic agent, antibiotics ointment, Gr. III topical CS, 10 days later) was “no more erosions and oozing”, the “clinical outcome, red swollen fingers with pain” value ([3]; after 2nd prescriptions: Valacyclovir 1 tablets daily for 14 days + anti-allergic agent + ADO ointment 2 time daily) was “improved” and the “clinical outcome, red swollen fingers with pain” value ([3]; after 3rd prescriptions: Valacyclovir 1 tablets daily for 14 days + anti-allergic agent + ADO ointment 2 time daily) was “nearly cured”. The hair regrowth ([5]; 1st case of alopecia, about 7 weeks after they finished Valacyclovir 2 tablets daily for 5 days) was “New hairs including black hairs increased a lot”, the “clinical outcome, pustule” value ([5]; 2nd case of alopecia, Valacyclovir 1 tablets daily for 95 days + anti-allergic agent + Acyclovir ointment for 6 weeks, a week later) was “The pustule disappeared” and the “clinical outcome, atrophic plague” value ([5]; 2nd case of alopecia, same regimen, 2 weeks later) was “nearly no change on the atrophic plague”. For the same molecule, the hair regrowth ([5]; 2nd case of alopecia, same regimen, 4 weeks later) was “hair increased obviously on the right side and posterior aspect” and the hair regrowth ([5]; 2nd case of alopecia, same regimen, 16 weeks later) was “New black hairs (circle) were observed and no more alopecia on the right side”.

With C[C@]12C=CC(=O)C=C1CC[C@@H]1[C@@H]2[C@@H](O)C[C@@]2(C)[C@H]1CC[C@]2(O)C(=O)CO [prednisolone] the “clinical outcome, symptoms” value ([8]; 2nd case of pyoderma gangrenosum with ulcerative colitis, oral prednisolone 40 mg tapered + gentamycin ointment + mesalazine, no antiviral, 13 days later) was “Symptoms have significantly improved”.
